Assay results: article PMC12373846, “Hemoglobin as a pseudoperoxidase and drug target for oxidative stress-related diseases” (Signal Transduction and Targeted Therapy, 2025)

Key:
Assay in all cases: KINOMEscan
Type in all cases: binding
Conditions in all cases: 10000 nM; read-out: Percent Control
MKNK1 = biological target: T1, MKNK1 (Homo sapiens, UniProt Q9BUB5)
T1 construct: purchased DiscoverX KINOMEscan scanEDGE; Eurofins Cerep SafetyScreen87
Protocol: (§1) The possibility of KDS12025 on kinase off-target, the KINOMEscan panel of scanEDGE assay was conducted in DiscoverX (CA, USA) using a site-directed competition binding with the test compounds. The assay results are given in Supplementary Table 4 and experimental information is available on the DiscoverX web page (www.discoverx.com). Moreover, the Delta SafetyScreen87 panel assay was conducted in Eurofins Discovery (Cerep, France). The assay results are given in Supplementary Table 5 and experimental information is available on the DiscoverX web page (https://www.eurofinsdiscoveryservices.com).

CSF1R = biological target: T2, CSF1R (Homo sapiens, UniProt P07333)
T2 construct: purchased DiscoverX KINOMEscan scanEDGE; Eurofins Cerep SafetyScreen87
Protocol: as §1

VEGFR2 = biological target: T3, VEGFR2 (Homo sapiens, UniProt P35968)
T3 construct: purchased DiscoverX KINOMEscan scanEDGE; Eurofins Cerep SafetyScreen87
Protocol: as §1

FAK = biological target: T4, FAK (Homo sapiens, UniProt Q05397)
T4 construct: purchased DiscoverX KINOMEscan scanEDGE; Eurofins Cerep SafetyScreen87
Protocol: as §1

PIM1 = biological target: T5, PIM1 (Homo sapiens, UniProt P11309)
T5 construct: purchased DiscoverX KINOMEscan scanEDGE; Eurofins Cerep SafetyScreen87
Protocol: as §1

INSR = biological target: T6, INSR (Homo sapiens, UniProt P06213)
T6 construct: purchased DiscoverX KINOMEscan scanEDGE; Eurofins Cerep SafetyScreen87
Protocol: as §1

PDGFRB = biological target: T7, PDGFRB (Homo sapiens, UniProt P09619)
T7 construct: purchased DiscoverX KINOMEscan scanEDGE; Eurofins Cerep SafetyScreen87
Protocol: as §1

PAK2 = biological target: T8, PAK2 (Homo sapiens, UniProt Q13177)
T8 construct: purchased DiscoverX KINOMEscan scanEDGE; Eurofins Cerep SafetyScreen87
Protocol: as §1

YANK3 = biological target: T9, YANK3 (Homo sapiens, UniProt Q86UX6)
T9 construct: purchased DiscoverX KINOMEscan scanEDGE; Eurofins Cerep SafetyScreen87
Protocol: as §1

MEK1 = biological target: T10, MEK1 (Homo sapiens, UniProt Q02750)
T10 construct: purchased DiscoverX KINOMEscan scanEDGE; Eurofins Cerep SafetyScreen87
Protocol: as §1

MARK3 = biological target: T11, MARK3 (Homo sapiens, UniProt P27448)
T11 construct: purchased DiscoverX KINOMEscan scanEDGE; Eurofins Cerep SafetyScreen87
Protocol: as §1

[1] = biological target: T12, ABL1(T315I)-phosphorylated (Homo sapiens, UniProt P00519, T315I)
T12 construct: purchased DiscoverX KINOMEscan scanEDGE; Eurofins Cerep SafetyScreen87
Protocol: as §1

PIK3CA = biological target: T13, PIK3CA (Homo sapiens, UniProt P42336)
T13 construct: purchased DiscoverX KINOMEscan scanEDGE; Eurofins Cerep SafetyScreen87
Protocol: as §1

PLK3 = biological target: T14, PLK3 (Homo sapiens, UniProt Q9H4B4)
T14 construct: purchased DiscoverX KINOMEscan scanEDGE; Eurofins Cerep SafetyScreen87
Protocol: as §1

JNK2 = biological target: T15, JNK2 (Homo sapiens, UniProt P45984)
T15 construct: purchased DiscoverX KINOMEscan scanEDGE; Eurofins Cerep SafetyScreen87
Protocol: as §1

DCAMKL1 = biological target: T16, DCAMKL1 (Homo sapiens, UniProt O15075)
T16 construct: purchased DiscoverX KINOMEscan scanEDGE; Eurofins Cerep SafetyScreen87
Protocol: as §1

ABL1-phosphorylated = biological target: T17, ABL1-phosphorylated (Homo sapiens, UniProt P00519)
T17 construct: purchased DiscoverX KINOMEscan scanEDGE; Eurofins Cerep SafetyScreen87
Protocol: as §1

FGFR3 = biological target: T18, FGFR3 (Homo sapiens, UniProt P22607)
T18 construct: purchased DiscoverX KINOMEscan scanEDGE; Eurofins Cerep SafetyScreen87
Protocol: as §1

PKAC-alpha = biological target: T19, PKAC-alpha (Homo sapiens, UniProt P17612)
T19 construct: purchased DiscoverX KINOMEscan scanEDGE; Eurofins Cerep SafetyScreen87
Protocol: as §1

PIK3CG = biological target: T20, PIK3CG (Homo sapiens, UniProt P48736)
T20 construct: purchased DiscoverX KINOMEscan scanEDGE; Eurofins Cerep SafetyScreen87
Protocol: as §1

ACVR1B = biological target: T21, ACVR1B (Homo sapiens, UniProt P36896)
T21 construct: purchased DiscoverX KINOMEscan scanEDGE; Eurofins Cerep SafetyScreen87
Protocol: as §1

CSNK1D = biological target: T22, CSNK1D (Homo sapiens, UniProt P48730)
T22 construct: purchased DiscoverX KINOMEscan scanEDGE; Eurofins Cerep SafetyScreen87
Protocol: as §1

AKT1 = biological target: T23, AKT1 (Homo sapiens, UniProt P31749)
T23 construct: purchased DiscoverX KINOMEscan scanEDGE; Eurofins Cerep SafetyScreen87
Protocol: as §1

BTK = biological target: T24, BTK (Homo sapiens, UniProt Q06187)
T24 construct: purchased DiscoverX KINOMEscan scanEDGE; Eurofins Cerep SafetyScreen87
Protocol: as §1

BRAF(V600E) = biological target: T25, BRAF(V600E) (Homo sapiens, UniProt P15056, V600E)
T25 construct: purchased DiscoverX KINOMEscan scanEDGE; Eurofins Cerep SafetyScreen87
Protocol: as §1

CHEK1 = biological target: T26, CHEK1 (Homo sapiens, UniProt O14757)
T26 construct: purchased DiscoverX KINOMEscan scanEDGE; Eurofins Cerep SafetyScreen87
Protocol: as §1

SRC = biological target: T27, SRC (Homo sapiens, UniProt P12931)
T27 construct: purchased DiscoverX KINOMEscan scanEDGE; Eurofins Cerep SafetyScreen87
Protocol: as §1

[2] = biological target: T28, TYK2(JH1domain-catalytic) (Homo sapiens, UniProt P29597)
T28 construct: TYK2(JH1domain-catalytic); purchased DiscoverX KINOMEscan scanEDGE; Eurofins Cerep SafetyScreen87
Protocol: as §1

CDK9 = biological target: T29, CDK9 (Homo sapiens, UniProt P50750)
T29 construct: purchased DiscoverX KINOMEscan scanEDGE; Eurofins Cerep SafetyScreen87
Protocol: as §1

[3] = biological target: T30, ABL1(E255K)-phosphorylated (Homo sapiens, UniProt P00519, E255K)
T30 construct: purchased DiscoverX KINOMEscan scanEDGE; Eurofins Cerep SafetyScreen87
Protocol: as §1

JNK1 = biological target: T31, JNK1 (Homo sapiens, UniProt P45983)
T31 construct: purchased DiscoverX KINOMEscan scanEDGE; Eurofins Cerep SafetyScreen87
Protocol: as §1

RET = biological target: T32, RET (Homo sapiens, UniProt P07949)
T32 construct: purchased DiscoverX KINOMEscan scanEDGE; Eurofins Cerep SafetyScreen87
Protocol: as §1

FGFR2 = biological target: T33, FGFR2 (Homo sapiens, UniProt P21802)
T33 construct: purchased DiscoverX KINOMEscan scanEDGE; Eurofins Cerep SafetyScreen87
Protocol: as §1

EPHA2 = biological target: T34, EPHA2 (Homo sapiens, UniProt P29317)
T34 construct: purchased DiscoverX KINOMEscan scanEDGE; Eurofins Cerep SafetyScreen87
Protocol: as §1

ERBB2 = biological target: T35, ERBB2 (Homo sapiens, UniProt P04626)
T35 construct: purchased DiscoverX KINOMEscan scanEDGE; Eurofins Cerep SafetyScreen87
Protocol: as §1

MEK2 = biological target: T36, MEK2 (Homo sapiens, UniProt P36507)
T36 construct: purchased DiscoverX KINOMEscan scanEDGE; Eurofins Cerep SafetyScreen87
Protocol: as §1

BRAF = biological target: T37, BRAF (Homo sapiens, UniProt P15056)
T37 construct: purchased DiscoverX KINOMEscan scanEDGE; Eurofins Cerep SafetyScreen87
Protocol: as §1

ABL1-nonphosphorylated = biological target: T38, ABL1-nonphosphorylated (Homo sapiens, UniProt P00519)
T38 construct: purchased DiscoverX KINOMEscan scanEDGE; Eurofins Cerep SafetyScreen87
Protocol: as §1

SRPK3 = biological target: T39, SRPK3 (Homo sapiens, UniProt Q9UPE1)
T39 construct: purchased DiscoverX KINOMEscan scanEDGE; Eurofins Cerep SafetyScreen87
Protocol: as §1

ERBB4 = biological target: T40, ERBB4 (Homo sapiens, UniProt Q15303)
T40 construct: purchased DiscoverX KINOMEscan scanEDGE; Eurofins Cerep SafetyScreen87
Protocol: as §1

T40 sequence (Q15303 26-1308): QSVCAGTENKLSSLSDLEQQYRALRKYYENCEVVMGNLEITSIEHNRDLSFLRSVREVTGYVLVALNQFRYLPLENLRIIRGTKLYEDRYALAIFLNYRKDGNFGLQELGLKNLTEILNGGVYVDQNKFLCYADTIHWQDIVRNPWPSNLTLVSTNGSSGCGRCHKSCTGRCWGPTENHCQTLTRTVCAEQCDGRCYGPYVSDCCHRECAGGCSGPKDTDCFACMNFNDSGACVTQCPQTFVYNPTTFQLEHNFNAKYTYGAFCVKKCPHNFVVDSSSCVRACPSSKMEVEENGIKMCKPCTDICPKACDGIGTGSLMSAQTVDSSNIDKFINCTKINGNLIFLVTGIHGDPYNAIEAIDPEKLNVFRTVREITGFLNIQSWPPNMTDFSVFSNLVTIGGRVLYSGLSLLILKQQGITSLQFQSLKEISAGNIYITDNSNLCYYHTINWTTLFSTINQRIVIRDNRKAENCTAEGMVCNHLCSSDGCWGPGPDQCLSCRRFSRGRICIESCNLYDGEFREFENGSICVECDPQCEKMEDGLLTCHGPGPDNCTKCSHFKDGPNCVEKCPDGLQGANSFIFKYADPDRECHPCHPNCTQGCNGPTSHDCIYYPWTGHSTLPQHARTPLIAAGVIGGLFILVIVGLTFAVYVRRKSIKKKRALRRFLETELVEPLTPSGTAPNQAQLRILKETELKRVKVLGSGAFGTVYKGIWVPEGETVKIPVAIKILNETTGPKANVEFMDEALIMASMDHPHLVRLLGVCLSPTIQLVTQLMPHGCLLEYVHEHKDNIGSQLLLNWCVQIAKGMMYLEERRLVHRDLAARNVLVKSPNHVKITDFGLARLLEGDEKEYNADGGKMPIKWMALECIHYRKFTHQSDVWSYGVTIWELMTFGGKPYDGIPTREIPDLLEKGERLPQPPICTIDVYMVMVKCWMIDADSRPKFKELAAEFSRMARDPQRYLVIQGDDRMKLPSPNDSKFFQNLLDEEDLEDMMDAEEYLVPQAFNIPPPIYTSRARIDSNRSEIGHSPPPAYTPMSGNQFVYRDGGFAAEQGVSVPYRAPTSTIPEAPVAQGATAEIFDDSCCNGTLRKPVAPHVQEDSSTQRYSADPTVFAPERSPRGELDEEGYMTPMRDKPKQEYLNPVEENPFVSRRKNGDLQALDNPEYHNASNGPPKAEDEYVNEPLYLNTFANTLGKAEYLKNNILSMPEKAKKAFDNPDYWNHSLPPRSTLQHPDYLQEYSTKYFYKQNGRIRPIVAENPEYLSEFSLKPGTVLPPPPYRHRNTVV
T7 sequence (P09619 33-1106): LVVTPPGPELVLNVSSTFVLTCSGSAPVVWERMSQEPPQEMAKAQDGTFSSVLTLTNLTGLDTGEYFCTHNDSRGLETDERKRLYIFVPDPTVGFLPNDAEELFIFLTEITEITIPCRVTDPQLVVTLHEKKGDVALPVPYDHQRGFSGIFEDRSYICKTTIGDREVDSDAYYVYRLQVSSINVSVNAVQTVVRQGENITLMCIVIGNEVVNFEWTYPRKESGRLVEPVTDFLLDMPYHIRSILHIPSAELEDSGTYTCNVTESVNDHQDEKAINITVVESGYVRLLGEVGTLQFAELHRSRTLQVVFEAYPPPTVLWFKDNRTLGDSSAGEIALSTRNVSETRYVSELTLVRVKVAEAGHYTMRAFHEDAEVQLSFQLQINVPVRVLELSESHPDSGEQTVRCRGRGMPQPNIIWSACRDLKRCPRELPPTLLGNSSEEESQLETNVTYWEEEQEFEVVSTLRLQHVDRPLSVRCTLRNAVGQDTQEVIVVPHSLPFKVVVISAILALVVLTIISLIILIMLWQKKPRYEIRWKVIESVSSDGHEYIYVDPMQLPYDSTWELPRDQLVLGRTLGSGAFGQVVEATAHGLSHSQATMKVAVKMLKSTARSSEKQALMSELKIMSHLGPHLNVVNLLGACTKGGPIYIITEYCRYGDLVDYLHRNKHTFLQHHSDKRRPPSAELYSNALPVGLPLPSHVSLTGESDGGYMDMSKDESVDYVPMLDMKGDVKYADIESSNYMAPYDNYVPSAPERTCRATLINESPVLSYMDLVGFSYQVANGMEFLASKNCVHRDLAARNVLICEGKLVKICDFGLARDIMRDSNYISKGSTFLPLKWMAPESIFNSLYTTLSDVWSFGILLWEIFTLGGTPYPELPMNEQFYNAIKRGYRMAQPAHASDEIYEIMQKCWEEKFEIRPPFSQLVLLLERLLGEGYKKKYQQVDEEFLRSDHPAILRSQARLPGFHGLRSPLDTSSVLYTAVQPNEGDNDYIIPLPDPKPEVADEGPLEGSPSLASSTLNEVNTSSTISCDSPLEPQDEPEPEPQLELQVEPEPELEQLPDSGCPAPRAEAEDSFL
T2 sequence (P07333 20-972): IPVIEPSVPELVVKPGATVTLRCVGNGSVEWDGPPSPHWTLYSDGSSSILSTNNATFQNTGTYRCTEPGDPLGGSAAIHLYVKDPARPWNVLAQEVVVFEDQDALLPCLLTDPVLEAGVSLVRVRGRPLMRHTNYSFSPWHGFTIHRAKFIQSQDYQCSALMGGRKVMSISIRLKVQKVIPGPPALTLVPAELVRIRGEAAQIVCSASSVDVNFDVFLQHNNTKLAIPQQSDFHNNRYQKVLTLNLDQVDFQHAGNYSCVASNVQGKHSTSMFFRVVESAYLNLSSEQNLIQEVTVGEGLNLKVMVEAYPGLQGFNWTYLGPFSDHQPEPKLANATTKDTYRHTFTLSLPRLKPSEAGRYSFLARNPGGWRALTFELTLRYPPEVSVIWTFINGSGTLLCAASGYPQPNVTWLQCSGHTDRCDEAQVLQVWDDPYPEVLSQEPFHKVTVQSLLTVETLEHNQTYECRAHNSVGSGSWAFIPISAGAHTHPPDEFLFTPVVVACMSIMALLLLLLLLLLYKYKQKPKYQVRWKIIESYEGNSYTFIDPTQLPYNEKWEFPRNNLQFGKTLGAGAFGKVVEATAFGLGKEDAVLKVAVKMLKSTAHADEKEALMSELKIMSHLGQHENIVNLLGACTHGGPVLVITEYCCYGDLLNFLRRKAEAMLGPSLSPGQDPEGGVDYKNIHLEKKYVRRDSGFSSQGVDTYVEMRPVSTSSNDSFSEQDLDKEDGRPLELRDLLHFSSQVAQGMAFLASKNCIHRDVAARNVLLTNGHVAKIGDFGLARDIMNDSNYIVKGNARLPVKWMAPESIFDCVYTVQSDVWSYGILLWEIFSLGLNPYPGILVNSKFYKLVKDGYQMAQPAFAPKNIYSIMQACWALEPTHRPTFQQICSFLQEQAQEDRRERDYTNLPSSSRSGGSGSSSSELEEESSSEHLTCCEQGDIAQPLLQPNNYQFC
T10 sequence (Q02750 whole entry): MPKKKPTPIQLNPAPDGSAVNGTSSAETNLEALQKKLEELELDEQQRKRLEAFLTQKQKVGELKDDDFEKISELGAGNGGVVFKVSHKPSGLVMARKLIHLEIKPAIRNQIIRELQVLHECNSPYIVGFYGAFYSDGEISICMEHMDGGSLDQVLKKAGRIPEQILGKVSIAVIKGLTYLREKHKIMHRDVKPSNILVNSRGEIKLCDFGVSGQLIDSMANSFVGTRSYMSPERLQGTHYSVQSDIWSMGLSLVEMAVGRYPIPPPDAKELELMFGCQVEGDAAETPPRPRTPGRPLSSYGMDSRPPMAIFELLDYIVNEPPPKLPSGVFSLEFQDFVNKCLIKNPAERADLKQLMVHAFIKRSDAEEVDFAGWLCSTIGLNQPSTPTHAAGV
T26 sequence (O14757 whole entry): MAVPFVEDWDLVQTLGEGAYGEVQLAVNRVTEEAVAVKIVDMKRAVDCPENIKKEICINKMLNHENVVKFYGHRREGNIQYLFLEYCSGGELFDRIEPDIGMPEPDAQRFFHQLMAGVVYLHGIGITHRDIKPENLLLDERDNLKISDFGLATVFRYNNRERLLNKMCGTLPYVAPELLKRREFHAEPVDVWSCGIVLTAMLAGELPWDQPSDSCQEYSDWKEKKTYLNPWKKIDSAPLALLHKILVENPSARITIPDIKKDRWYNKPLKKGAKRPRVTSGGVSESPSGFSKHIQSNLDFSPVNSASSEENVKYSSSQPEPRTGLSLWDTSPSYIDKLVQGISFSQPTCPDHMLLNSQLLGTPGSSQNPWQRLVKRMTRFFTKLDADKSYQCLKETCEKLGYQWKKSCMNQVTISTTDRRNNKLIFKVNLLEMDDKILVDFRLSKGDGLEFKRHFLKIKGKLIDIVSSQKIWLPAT
T39 sequence (Q9UPE1 whole entry): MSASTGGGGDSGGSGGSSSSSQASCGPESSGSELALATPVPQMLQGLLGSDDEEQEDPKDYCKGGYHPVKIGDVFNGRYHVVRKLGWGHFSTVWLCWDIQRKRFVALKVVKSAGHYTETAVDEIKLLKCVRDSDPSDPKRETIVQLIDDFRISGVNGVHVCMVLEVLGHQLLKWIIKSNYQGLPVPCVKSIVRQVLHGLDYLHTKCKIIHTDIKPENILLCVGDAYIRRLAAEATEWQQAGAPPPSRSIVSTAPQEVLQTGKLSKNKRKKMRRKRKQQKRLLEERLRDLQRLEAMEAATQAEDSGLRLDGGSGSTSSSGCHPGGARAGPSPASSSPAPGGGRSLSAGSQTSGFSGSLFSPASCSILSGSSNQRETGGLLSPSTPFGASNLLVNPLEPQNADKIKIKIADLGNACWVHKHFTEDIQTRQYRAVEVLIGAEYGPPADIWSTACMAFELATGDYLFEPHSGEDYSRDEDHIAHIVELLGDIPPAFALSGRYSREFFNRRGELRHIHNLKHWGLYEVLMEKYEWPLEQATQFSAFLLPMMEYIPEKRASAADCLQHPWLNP
T5 sequence (P11309 whole entry): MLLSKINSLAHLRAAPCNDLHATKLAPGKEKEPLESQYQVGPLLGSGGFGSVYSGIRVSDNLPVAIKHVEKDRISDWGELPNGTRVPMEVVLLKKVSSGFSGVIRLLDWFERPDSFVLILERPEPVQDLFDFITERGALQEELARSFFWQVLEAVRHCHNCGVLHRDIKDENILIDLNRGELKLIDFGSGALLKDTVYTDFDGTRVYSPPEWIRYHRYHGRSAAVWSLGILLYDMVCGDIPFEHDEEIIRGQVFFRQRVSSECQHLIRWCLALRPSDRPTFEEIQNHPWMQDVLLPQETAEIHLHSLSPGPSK

Q: With `CNc1ccc(NCCc2ccccc2OC)cc1.Cl` [KDS12025, N^1-(2-methoxyphenethyl)-N^4-methylbenzene-1,4-diamine hydrochloride salt] as the compound, how does the remaining binding at 10 µM (MKNK1) read?
A: Its remaining binding at 10 µM is 100%.

Q: And the remaining binding at 10 µM (CSF1R)?
A: Its remaining binding at 10 µM is 100%.

Q: What about the remaining binding at 10 µM (VEGFR2) of the same compound?
A: The remaining binding at 10 µM was 100%.

Q: What about the remaining binding at 10 µM (FAK) of the same compound?
A: Its remaining binding at 10 µM is 100%.

Q: What about the remaining binding at 10 µM (PIM1) of the same compound?
A: The remaining binding at 10 µM was 95%.

Q: What about the remaining binding at 10 µM (INSR) of the same compound?
A: Its remaining binding at 10 µM is 85%.

Q: And the remaining binding at 10 µM (PDGFRB)?
A: The remaining binding at 10 µM was 92%.

Q: What about the remaining binding at 10 µM (PAK2) of the same compound?
A: Its remaining binding at 10 µM is 94%.

Q: And the remaining binding at 10 µM (YANK3)?
A: Its remaining binding at 10 µM is 83%.

Q: And the remaining binding at 10 µM (MEK1)?
A: Its remaining binding at 10 µM is 82%.

Q: And the remaining binding at 10 µM (MARK3)?
A: The remaining binding at 10 µM was 66%.

Q: What about the remaining binding at 10 µM [1] of the same compound?
A: The remaining binding at 10 µM was 84%.

Q: And the remaining binding at 10 µM (PIK3CA)?
A: Its remaining binding at 10 µM is 63%.

Q: And the remaining binding at 10 µM (PLK3)?
A: The remaining binding at 10 µM was 75%.

Q: What about the remaining binding at 10 µM (JNK2) of the same compound?
A: Its remaining binding at 10 µM is 91%.

Q: What about the remaining binding at 10 µM (DCAMKL1) of the same compound?
A: The remaining binding at 10 µM was 82%.

Q: And the remaining binding at 10 µM (ABL1-phosphorylated)?
A: The remaining binding at 10 µM was 100%.

Q: What about the remaining binding at 10 µM (FGFR3) of the same compound?
A: Its remaining binding at 10 µM is 91%.

Q: What about the remaining binding at 10 µM (PKAC-alpha) of the same compound?
A: Its remaining binding at 10 µM is 74%.

Q: And the remaining binding at 10 µM (PIK3CG)?
A: The remaining binding at 10 µM was 100%.

Q: And the remaining binding at 10 µM (ACVR1B)?
A: Its remaining binding at 10 µM is 100%.

Q: And the remaining binding at 10 µM (CSNK1D)?
A: Its remaining binding at 10 µM is 88%.

Q: And the remaining binding at 10 µM (AKT1)?
A: The remaining binding at 10 µM was 75%.

Q: What about the remaining binding at 10 µM (BTK) of the same compound?
A: The remaining binding at 10 µM was 100%.

Q: What about the remaining binding at 10 µM (BRAF(V600E)) of the same compound?
A: The remaining binding at 10 µM was 100%.

Q: And the remaining binding at 10 µM (CHEK1)?
A: Its remaining binding at 10 µM is 82%.

Q: What about the remaining binding at 10 µM (SRC) of the same compound?
A: The remaining binding at 10 µM was 72%.

Q: What about the remaining binding at 10 µM [2] of the same compound?
A: Its remaining binding at 10 µM is 93%.

Q: And the remaining binding at 10 µM (CDK9)?
A: Its remaining binding at 10 µM is 83%.

Q: What about the remaining binding at 10 µM [3] of the same compound?
A: Its remaining binding at 10 µM is 100%.

Q: What about the remaining binding at 10 µM (JNK1) of the same compound?
A: The remaining binding at 10 µM was 75%.

Q: And the remaining binding at 10 µM (RET)?
A: Its remaining binding at 10 µM is 100%.

Q: What about the remaining binding at 10 µM (FGFR2) of the same compound?
A: The remaining binding at 10 µM was 87%.

Q: What about the remaining binding at 10 µM (EPHA2) of the same compound?
A: Its remaining binding at 10 µM is 89%.

Q: And the remaining binding at 10 µM (ERBB2)?
A: Its remaining binding at 10 µM is 100%.

Q: And the remaining binding at 10 µM (MEK2)?
A: The remaining binding at 10 µM was 91%.

Q: What about the remaining binding at 10 µM (BRAF) of the same compound?
A: Its remaining binding at 10 µM is 100%.

Q: And the remaining binding at 10 µM (ABL1-nonphosphorylated)?
A: Its remaining binding at 10 µM is 72%.

Q: What about the remaining binding at 10 µM (SRPK3) of the same compound?
A: Its remaining binding at 10 µM is 91%.

Q: What about the remaining binding at 10 µM (ERBB4) of the same compound?
A: The remaining binding at 10 µM was 92%.
